Structures are written as SMILES. Where only a bound is given, the exact number is not on record here.

The target in the assay is His-Tagged hOGA (human O-GlcNAcase) (Homo sapiens (Human), UniProt O60502). The experiment in a line: Human O-GlcNAcase enzyme inhibition assay.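 Further: reactions contained 20 nM His-tagged hOGA enzyme with 10 µM FL-GlcNAc substrate.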 The class given is biochemical. The conditions noted are these: OGA enzyme inhibition assay; FL-GlcNAc substrate, pH 6.5; activity classes defined in μM; read-out: OGA IC50.
Sequence of His-Tagged hOGA (human O-GlcNAcase) (O60502 whole entry): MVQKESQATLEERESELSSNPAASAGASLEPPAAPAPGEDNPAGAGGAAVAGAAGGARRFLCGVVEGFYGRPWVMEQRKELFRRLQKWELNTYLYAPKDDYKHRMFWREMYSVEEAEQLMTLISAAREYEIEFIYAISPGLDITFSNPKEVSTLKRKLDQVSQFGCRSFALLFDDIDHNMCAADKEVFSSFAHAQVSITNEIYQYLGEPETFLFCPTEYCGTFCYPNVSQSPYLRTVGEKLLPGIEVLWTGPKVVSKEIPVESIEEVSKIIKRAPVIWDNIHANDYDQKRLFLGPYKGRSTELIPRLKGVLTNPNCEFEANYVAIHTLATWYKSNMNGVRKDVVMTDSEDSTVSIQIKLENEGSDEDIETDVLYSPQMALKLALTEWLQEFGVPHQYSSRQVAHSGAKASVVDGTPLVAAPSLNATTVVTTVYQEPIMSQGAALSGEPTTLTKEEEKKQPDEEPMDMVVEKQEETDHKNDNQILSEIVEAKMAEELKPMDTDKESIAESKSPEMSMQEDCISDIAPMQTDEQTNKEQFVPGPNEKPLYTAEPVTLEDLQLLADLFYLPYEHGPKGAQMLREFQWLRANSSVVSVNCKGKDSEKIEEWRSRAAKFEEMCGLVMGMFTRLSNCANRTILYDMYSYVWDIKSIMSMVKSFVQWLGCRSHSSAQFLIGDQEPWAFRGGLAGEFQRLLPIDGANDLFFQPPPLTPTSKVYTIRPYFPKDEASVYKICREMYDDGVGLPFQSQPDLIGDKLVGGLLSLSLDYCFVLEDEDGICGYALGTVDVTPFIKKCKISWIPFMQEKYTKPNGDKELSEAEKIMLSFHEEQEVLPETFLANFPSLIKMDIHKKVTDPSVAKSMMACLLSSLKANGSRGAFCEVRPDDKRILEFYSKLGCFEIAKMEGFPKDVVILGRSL
Method: Then, 20 nM of His-Tagged hOGA and 10 μM of FL-GlcNAc (Fluorescein mono-beta-D-(2-deoxy-2-N-acetyl) glucopyranoside; Marker Gene Technologies Inc, M1485) were added to the 384-well plate for a final volume of 20 μl.
In the case of `CC(=O)N1CCc2nc(N3CCN(C(C)c4ccc5c(c4)OCC5)CC3)sc2C1` (racemic) [Example 10, 1-(2-(4-(1-(2,3-dihydrobenzofuran-6-yl)ethyl)piperazin-1-yl)-6,7-dihydrothiazolo[5,4-c]pyridin-5(4H)-yl)ethan-1-one], the IC50 was less than 0.05 µM. Next, `Cc1nnc(C2CCN(C(C)c3ccc4c(c3)OCC4)CC2)o1` (racemic) [Example 23, 2-(1-(1-(2,3-dihydrobenzofuran-6-yl)ethyl)piperidin-4-yl)-5-methyl-1,3,4-oxadiazole]: less than 0.05 µM. Next, `CC(c1ccc2c(c1)OCC2)N1CCN(c2nnc(CN(C)C)s2)CC1` (racemic) [Example 123, 1-(5-(4-(1-(2,3-dihydrobenzofuran-6-yl)ethyl)piperazin-1-yl)-1,3,4-thiadiazol-2-yl)-N,N-dimethylmethanamine]: less than 0.05 µM. Next, `COC(=O)c1cnc(N2CCN(C(C)c3ccc4scnc4c3)CC2)nc1` (racemic) [Example 95, Methyl 2-(4-(1-(benzo[d]thiazol-5-yl)ethyl)piperazin-1-yl)pyrimidine-5-carboxylate]: less than 0.05 µM. As to `CC(c1ccc2nccnc2c1)N1CCN(c2nc3c(s2)CNCC3)CC1` (racemic) [Example 19, 2-(4-(1-(quinoxalin-6-yl)ethyl)piperazin-1-yl)-4,5,6,7-tetrahydrothiazolo[5,4-c]pyridine], the IC50 is 0.05 to 0.2 µM.

As to `CC(=O)NC(C)(C)c1cnc(N2CCN(C(C)c3ccc4nccnc4c3)CC2)nc1` (racemic) [Example 107, N-(2-(2-(4-(1-(quinoxalin-6-yl)ethyl)piperazin-1-yl)pyrimidin-5-yl)propan-2-yl)acetamide], the IC50 lay in the range of 0.2 to 1 µM. For the compound `COC(=O)c1ccnc(N2CCN(C(C)c3ccc4c(c3)OCC4)CC2)n1` (racemic) [Example 102, Methyl 2-(4-(1-(2,3-dihydrobenzofuran-6-yl)ethyl)piperazin-1-yl)pyrimidine-4-carboxylate], the IC50 is less than 0.05 µM. As to `CCOC(=O)c1cnn(C2CCN(C(C)c3ccc4c(c3)OCC4)CC2)c1` (racemic) [Example 32, Ethyl 1-(1-(1-(2,3-dihydrobenzofuran-6-yl)ethyl)piperidin-4-yl)-1H-pyrazole-4-carboxylate], the IC50 fell in the range of 0.05 to 0.2 µM.

For `CC(c1ccc2c(c1)OCC2)N1CCN(c2ncc(C3(O)CCOC3)cn2)CC1` (racemic) [Example 79, 3-(2-(4-(1-(2,3-dihydrobenzofuran-6-yl)ethyl)piperazin-1-yl)pyrimidin-5-yl)tetrahydrofuran-3-ol], the IC50 was less than 0.05 µM. Next, `CC(c1ccc2nccnc2c1)N1CCN(c2ncc3c(n2)CCNC3)CC1` (racemic) [Example 8, 2-(4-(1-(quinoxalin-6-yl)ethyl)piperazin-1-yl)-5,6,7,8-tetrahydropyrido [4,3-d] pyrimidine]: less than 0.05 µM; `CC(c1ccc2c(c1)OCC2)N1CCN(c2ccc(C(C)(C)O)cn2)CC1` (racemic) [Example 48, 2-(6-(4-(1-(2,3-dihydrobenzofuran-6-yl)ethyl)piperazin-1-yl)pyridin-3-yl)propan-2-ol]: less than 0.05 µM.

Usually IC50 stands for the concentration needed to halve the response being measured.

(Values after patent publication US10556902B2 (Asceneuron SA, priority 2016, dated 2020).)
